For assay [1], the system named is PP2A phosphatase. Kind of assay: In vitro dephosphorylation of phosphorylated GST-2E11 with HTB-14 whole cell extracts. In kind it is biochemical, Human. As to conditions: HTB-14 cell extracts plus 400 μM okadaic acid, 30 min, room temperature. As for the experimental part:
In vitro phosphorylated GST-2E11 fusion protein was incubated at room temperature for 30 min with 500 μg of whole cell extracts of Human glioblastoma, astrocytoma cell line (ATCC number: HTB-14) with or without 400 μM of the PP2A phosphatase inhibitor okadaic acid (Sigma). HTB-14 whole cell extracts were prepared as follow: cells were washed three times with ice-cold TBS buffer (10 mM Tris-HCl [pH 8.0], 120 mM NaCl) and lysed at 4° C. for 30 min in EBC buffer (50 mM Tris-HCl [pH 8.0], 120 mM NaCl, 0.5% Nonidet P-40). Then the lysate was centrifugated for 10 min at 13.000×g at 4° C. to pellet cell debris. Proteins present in the supernatant were quantified by the standard Bradford's method (Bio-Rad Protein Assay). The proteins were then resolved by 10% SDS-PAGE, and visualized by autoradiography.
The phosphorylated radiolabeled GST-2E11 proteins obtained from the previous assay were incubated in the presence of HTB-14 cell extracts containing the PP2A phosphatase to determine whether PP2A is capable of dephosphorylating GST-2E11 proteins. In this experiment, a protein that is dephosphorylated by PP2A is not radioactive after incubation in the presence of HTB-14 cell extracts any more. Thus dephosphorylation of the GST-2E11 protein is monitored by disappearance of the signal visualized by autoradiography. […]

The test system of assay [2] is GSK-3β. The assay can be described thus: In vitro phosphorylation assay of GST-2E11 with recombinant GSK-3β kinase and PKA. In kind it is biochemical. The settings on record: LiCl at final concentration 0, 8.3, 25, 75 and 225 mM; signal negatively correlated with concentration. As for the experimental part: Expression and purification of the GST-2E11 fusion protein were performed as described above. Beads with bound fusion protein corresponding to 1 ml of bacterial clear lysate were washed three times in NETN and one time with HMK buffer without DTT (20 mM Tris-HCl [pH 7.5], 120 mM NaCl, 12 mM MgCl2). Beads were resuspended in 240 μl of reaction mix (24 μl of 10×HMK Buffer with 20 mM DTT, 40 units of Protein Kinase A Catalytic Subunit [PKA from bovine heart, 250 units/vial, Sigma] in 40 mM DTT, 5 μl of 24 mM ATP and 207 μl of distilled water) and incubated for 30 min at room temperature. Beads were then washed three times in NETN buffer and one time in GSK-3β reaction buffer (20 mM Tris-HCl [pH 7.5], 10 mM MgCl2, 5 mM DTT) (New England Biolabs). Beads were then resuspended in 50 μl of reaction mix (5 μl of 10×GSK-3β reaction buffer, 1 μl of [^32P]γATP 10mCi/ml, 50 U of recombinant GSK-3β[New England Biolabs], and distilled water for a final volume of 50 μl) and incubated at room temperature for 30 min. After three washes in NETN buffer, phosphorylated proteins were boiled in 2× Sample Buffer (125 mM Tris-HCl [pH 6.8], 4% SDS, 20% glycerol, 1.4 M β-Mercapto ethanol), resolved by 10% SDS-PAGE, and visualized by autoradiography.
In this phosphorylation assay, non-radiolabeled polypeptides to be tested are incubated in the presence of GSK-3β, PKA and radioactive ATP. […]

For `C=C1[C@@H](O)[C@@H]2O[C@]3(CC[C@H](/C=C/[C@@H](C)[C@@H]4CC(C)=C[C@@]5(O[C@H](C[C@@](C)(O)C(=O)O)CC[C@H]5O)O4)O3)CC[C@H]2O[C@@H]1[C@@H](O)C[C@H](C)[C@H]1O[C@@]2(CCCCO2)CC[C@H]1C` [okadaic acid], the “intensity of the GST-2E11 band versus phosphorylated GST-2E11 reference (inhibition of dephosphorylation)” value in assay [1] is given as “only slightly weaker”. As for `[Cl-].[Li+]` [LiCl], in assay [2], the “intensity of the GST-2E11 band (phosphorylation) in the presence of LiCl” value was “decreased”.

(Values after patent publication US20040203128A1, “Use of PP2A phosphatase modulators in the treatment of mental disorders” (priority 2002, published 2004).)
